Where a name gives a salt, the structure may show the parent alone.

Data set [1] in a line: Mechanical treatment (manual grinding) of Form A of the hemi-fumarate salt. In kind it is physicochemical. On the procedure: Appropriate amount of the Form A of the hemi-fumarate salt was ground for about two and five minutes manually and the samples were analyzed by XRPD (Example 1, XRPD). […] The crystallinity became low after grinding for five minutes. Solubility of the Form A of the Hemi-Fumarate Salt of the Compound of Formula (I) in Biologically Relevant Media

Data set [2] can be described thus: Dynamic vapor sorption (DVS Intrinsic, 25° C., 0-90% RH). In kind it is physicochemical. On the procedure: Moisture sorption/desorption data were collected on a DVS Intrinsic (SMS, UK). The sample was placed into a tared sample chamber and automatically weighed. The sample was dried at 40° C. until the dm/dt was less than 0.002% and cooled to 25° C. Set the instrument parameters as below. • Step time (min): 60 min • Sample temperature: 25° C. • Cycle: Full cycle • Adsorption: 0, 10, 20, 30, 40, 50, 60, 70, 80, 90 • Desorption: 80, 70, 60, 50, 40, 30, 20, 10, 0 • Save Data Rate: 5 s • Total flow rate: 200 sccm • Post experiment total flow: 200 sccm
The associated DVS isotherm plot of Form A of the hemi-fumarate salt is depicted in FIG. 10.

Regarding `Cc1cc(NC(=O)[C@H](O)c2cc(F)cc(F)c2)ccc1-c1cnc(N)c(C(=O)NC(C)C)c1` [Form A of the hemi-fumarate salt, (R)-2-amino-5-(4-(2-(3,5-difluorophenyl)-2-hydroxyacetamido)-2-methylphenyl)-N-isopropylnicotinamide], the “Crystallinity after manual grinding” value in data set [1] (grinding for five minutes) is “became low”. Besides, the “XRPD form after manual grinding” value in data set [1] (ground for about two and five minutes manually) is “remained unchanged and no new form was obtained by grinding”. In data set [2], the “Crystal form after DVS analysis” value is given as “did not change”. Moreover, the “Hygroscopicity (DVS)” value in data set [2] (25° C.) is “slightly hygroscopic”. Moreover, the “Water uptake (DVS)” value in data set [2] (at 80% RH, 25° C.) turned out to be 0.66%.

(Values after patent US20260265199A1, “CRYSTALLINE FORMS OF (R)-2-AMINO-5-(4-(2-(3,5-DIFLUOROPHENYL)-2-HYDROXYACETAMIDO)-2-METHYLPHENYL)-N-ISOPROPYLNICOTINAMIDE AND METHODS FOR USING THE SAME” (HIBERCELL, INC., priority 2023, published 2026).)
